Measured values: patent US20060069132A1, “Azolecarboxamide herbicides” (priority 2004, published 2006)

Legend:
bipinnate beggarticks = assay: Test E pre-/postemergence herbicide test; assay type: in vivo, Bidens bipinnata; details: Preemergence
From the text: (§1) Seeds of plant species selected from bipinnate beggarticks (Bidens bipinnata L.), hairy beggarticks (Bidens radiata Thuill.), bermudagrass (Cynodon dactylon (L.) Pers.), Surinam grass (Urochloa decumbens (Staph) R. D. Webster, previously named Brachiaria decumbens Stapf), large crabgrass (Digitaria sanguinalis (L.) Scop.), green foxtail (Setaria viridis (L.) P. Beauv.), goosegrass (Eleusine indica (L.) Gaertn.), johnsongrass (Sorghum halepense (L.) Pers.), kochia (Kochia scoparia (L.) Schrad.), pitted morningglory (Ipomoea lacunosa L.), purple nutsedge (Cyperus rotundus L.), common ragweed (Ambrosia elatior L.), mustard (Brassica nigra (L.) W. D. J. Koch), guineagrass (Panicum maximum Jacq.), dallisgrass (Paspalum dilatatum Poir.), barnyardgrass (Echinochloa crus-galli (L). P. Beauv.), southern sandbur (Cenchrus echinatus L.), common sowthistle (Sonchus oleraceous L.), prickly sida (Sida spinosa L.), Italian ryegrass (Lolium multiflorum Lam.), common purslane (Portulaca oleracea L.), broadleaf signalgrass (Brachiaria platyphylla (Griseb.) Nash), common groundsel (Senecio vulgaris L.), common chickweed (Stellaria media (L.) Vill/Cyr.), tropical spiderwort (Commelina benghalensis L.), annual bluegrass (Poa annua L.), downy bromegrass (Bromus tectorum L.), itchgrass (Rottboellia cochinchinensis (L.) L.f.), quackgrass (Elytrigia repens (L.) Nevski), Canada horseweed (Erigeron Canadensis L.), field bindweed (Convolvulus arvensis L.), spotted spurge (Euphorbia maculata L.), common mallow (Malva sylvestris (=s silvestris) L.), and Russian thistle (Salsola kali L. ssp. Ruthenica (Iljin) Soo) were planted and treated preemergence with test chemicals formulated in a non-phytotoxic solvent mixture which included a surfactant.
(§2) At the same time, plants selected from these weed species were treated with postemergence applications of some of the test chemicals formulated in the same manner. Plants ranged in height from 2 to 18 cm (1- to 4-leaf stage) for postemergence treatments. Treated plants and controls were maintained in a greenhouse for 12 to 14 days, after which time all species were compared to controls and visually evaluated. Plant response ratings, summarized in Table E, are based on a scale of 0 to 100 where 0 is no effect and 100 is complete control. A dash (-) response means no test result.

kochia = assay: Test E pre-/postemergence herbicide test; assay type: in vivo, Kochia scoparia
From the text: as §1, §2

barnyardgrass = assay: Test D flooded paddy test; assay type: in vivo, Echinochloa crus-galli; details: 21 days, scale 0 to 100
From the text: (§3) Three plastic pots (ca. 16-cm diameter) per rate were partially filled with sterilized Tama silt loam soil comprising a 35:50:15 ratio of sand, silt and clay and 2.6% organic matter. Separate plantings for each of the three pots were as follows. Seeds from the U.S. of ducksalad (Heteranthera limosa (Sw.) Willd.), smallflower umbrella sedge (Cyperus difformis L.) and purple redstem (Ammannia coccinea Rottb.), were planted into one 16-cm pot for each rate. Seeds from the U.S. of rice flatsedge (Cyperus iria L.), bearded sprangletop (Leptochloa fascicularis (Lam.) Gray), one stand of 9 or 10 water seeded rice seedlings (Oryza sativa L. cv. ‘Japonica—M202’), and one stand of 6 transplanted rice seedlings (Oryza sativa L. cv. ‘Japonica—M202’) were planted into one 16-cm pot for each rate. Seeds from the U.S. of barnyardgrass (Echinochloa crus-galli (L.) Beauv.), late watergrass (Echinochloa oryzicola Vasinger), early watergrass (Echinochloa oryzoides (Ard.) Fritsch) and junglerice (Echinochloa colona (L.) Link) were planted into one 16-cm pot for each rate. Plantings were sequential so that crop and weed species were at the 2.0 to 2.5-leaf stage at time of treatment.
(§4) Potted plants were grown in a greenhouse with day/night temperature settings of 29.5/26.7° C., and supplemental balanced lighting was provided to maintain a 16-hour photoperiod. Test pots were maintained in the greenhouse until test completion.
(§5) At time of treatment, test pots were flooded to 3 cm above the soil surface, treated by application of test compounds directly to the paddy water, and then maintained at that water depth for the duration of the test. Effects of treatments on rice and weeds were visually evaluated by comparison to untreated controls after 21 days. Plant response ratings are reported on a 0 to 100 scale; where 0 is no effect and 100 is complete control. A dash (-) response means no test result.

rice flatsedge = assay: Test D flooded paddy test; assay type: in vivo, Cyperus iria; details: 21 days, scale 0 to 100
From the text: as §3, §4, §5

early watergrass = assay: Test D flooded paddy test; assay type: in vivo, Echinochloa oryzoides; details: 21 days, scale 0 to 100
From the text: as §3, §4, §5

junglerice = assay: Test D flooded paddy test; assay type: in vivo, Echinochloa colona; details: 21 days, scale 0 to 100
From the text: as §3, §4, §5

bearded sprangletop = assay: Test D flooded paddy test; assay type: in vivo, Leptochloa fascicularis; details: 21 days, scale 0 to 100
From the text: as §3, §4, §5

[1] = tested on: smallflower umbrella sedge; assay: Test D flooded paddy test; assay type: in vivo, Cyperus difformis; details: 21 days, scale 0 to 100
From the text: as §3, §4, §5

ducksalad = assay: Test D flooded paddy test; assay type: in vivo, Heteranthera limosa; details: 21 days, scale 0 to 100
From the text: as §3, §4, §5

purple redstem = assay: Test D flooded paddy test; assay type: in vivo, Ammannia coccinea; details: 21 days, scale 0 to 100
From the text: as §3, §4, §5

late watergrass = assay: Test D flooded paddy test; assay type: in vivo, Echinochloa oryzicola; details: 21 days, scale 0 to 100
From the text: as §3, §4, §5

CCc1nn(C(C)(C)CC)nc1C(=O)Nc1cccc(C(=O)N(C)C)c1 [Compound 372]
Plant response rating, Beggarticks, Bip. (bipinnate beggarticks; 62 g ai/ha, scale 0 to 100): 10
Plant response rating, Beggarticks, Bip. (bipinnate beggarticks; 125 g ai/ha, scale 0 to 100): 40
Plant response rating, Beggarticks, Bip. (bipinnate beggarticks; 250 g ai/ha, scale 0 (no effect) to 100 (complete control)): 50
Plant response rating, Beggarticks, Bip. (bipinnate beggarticks; 500 g ai/ha, scale 0 (no effect) to 100 (complete control)): 60

CCn1nc(C(C)(C)C)cc1C(=O)Nc1cc(C(=O)N(C)C)ccc1F [Compound 6, N-[5-[(dimethylamino)carbonyl]-2-fluorophenyl]-3-(1,1-dimethylethyl)-1-ethyl-1H-pyrazole-5-carboxamide]
Plant response rating, Kochia (kochia; Postemergence, 500 g ai/ha, scale 0 to 100): 100
Plant response rating, Kochia (kochia; Postemergence, 250 g ai/ha, scale 0 to 100): 100
Plant response rating, Kochia (kochia; Preemergence, 62 g ai/ha, scale 0 to 100): 100
Plant response rating, Kochia (kochia; Preemergence, 125 g ai/ha, scale 0 (no effect) to 100 (complete control)): 100
Plant response rating, Kochia (kochia; Preemergence, 250 g ai/ha, scale 0 (no effect) to 100 (complete control)): 100
Plant response rating, Kochia (kochia; Preemergence, 500 g ai/ha, scale 0 (no effect) to 100 (complete control)): 100
Plant response rating, Kochia (kochia; postemergence, 125 g ai/ha, scale 0 to 100): 100
Plant response rating, Kochia (kochia; postemergence, 62 g ai/ha, scale 0 to 100): 100

CCc1nc(C(C)(C)C)sc1C(=O)Nc1cccc(C(=O)NCC2CC2)n1 [Compound 215]
Plant response rating, Barnyardgrass (barnyardgrass; 125 g ai/ha): 0
Plant response rating, Barnyardgrass (barnyardgrass; 250 g ai/ha): 0
Plant response rating, Barnyardgrass (barnyardgrass; 500 g ai/ha): 0
Plant response rating, Barnyardgrass (barnyardgrass; 750 g ai/ha): 30
Plant response rating, Barnyardgrass (barnyardgrass; 1000 g ai/ha): 40
Plant response rating, Flatsedge, Rice (rice flatsedge; 125 g ai/ha): 0
Plant response rating, Flatsedge, Rice (rice flatsedge; 250 g ai/ha): 60
Plant response rating, Flatsedge, Rice (rice flatsedge; 500 g ai/ha): 60
Plant response rating, Flatsedge, Rice (rice flatsedge; 750 g ai/ha): 80
Plant response rating, Flatsedge, Rice (rice flatsedge; 1000 g ai/ha): 90
Plant response rating, Watergrass, Early (early watergrass; 125 g ai/ha): 0
Plant response rating, Watergrass, Early (early watergrass; 250 g ai/ha): 0
Plant response rating, Watergrass, Early (early watergrass; 500 g ai/ha): 20
Plant response rating, Watergrass, Early (early watergrass; 750 g ai/ha): 25
Plant response rating, Watergrass, Early (early watergrass; 1000 g ai/ha): 40
Plant response rating, Junglerice (junglerice; 125 g ai/ha): 0
Plant response rating, Junglerice (junglerice; 250 g ai/ha): 0
Plant response rating, Junglerice (junglerice; 500 g ai/ha): 20
Plant response rating, Junglerice (junglerice; 750 g ai/ha): 25
Plant response rating, Junglerice (junglerice; 1000 g ai/ha): 25
Plant response rating, Sprangletop, Bearded (bearded sprangletop; 125 g ai/ha): 20
Plant response rating, Sprangletop, Bearded (bearded sprangletop; 250 g ai/ha): 20
Plant response rating, Sprangletop, Bearded (bearded sprangletop; 500 g ai/ha): 20
Plant response rating, Sprangletop, Bearded (bearded sprangletop; 750 g ai/ha): 20
Plant response rating, Sprangletop, Bearded (bearded sprangletop; 1000 g ai/ha): 20
Plant response rating, Sedge, Umbrella ([1]; 125 g ai/ha): 20
Plant response rating, Sedge, Umbrella ([1]; 250 g ai/ha): 95
Plant response rating, Sedge, Umbrella ([1]; 500 g ai/ha): 95
Plant response rating, Sedge, Umbrella ([1]; 750 g ai/ha): 95
Plant response rating, Sedge, Umbrella ([1]; 1000 g ai/ha): 100
Plant response rating, Ducksalad (ducksalad; 125 g ai/ha): 0
Plant response rating, Ducksalad (ducksalad; 250 g ai/ha): 0
Plant response rating, Ducksalad (ducksalad; 500 g ai/ha): 20
Plant response rating, Ducksalad (ducksalad; 750 g ai/ha): 20
Plant response rating, Ducksalad (ducksalad; 1000 g ai/ha): 75
Plant response rating, Redstem (purple redstem; 125 g ai/ha): 0
Plant response rating, Redstem (purple redstem; 250 g ai/ha): 100
Plant response rating, Redstem (purple redstem; 500 g ai/ha): 100
Plant response rating, Redstem (purple redstem; 750 g ai/ha): 100
Plant response rating, Redstem (purple redstem; 1000 g ai/ha): 100
Plant response rating, Watergrass, Late (late watergrass; 125 g ai/ha): 0
Plant response rating, Watergrass, Late (late watergrass; 250 g ai/ha): 0
Plant response rating, Watergrass, Late (late watergrass; 500 g ai/ha): 20
Plant response rating, Watergrass, Late (late watergrass; 750 g ai/ha): 20
Plant response rating, Watergrass, Late (late watergrass; 1000 g ai/ha): 20
